Experiment [1] is filed under the species Mus musculus. Put plainly: Maximum reduction in blood glucose levels in KKA mice at a dosage of 0.005% in diet. It counts as functional.
For experiment [2], the species on record is Mus musculus. Put plainly: Maximum reduction in plasma triglyceride levels in KKA mice at a dosage of 0.005% in diet. The experiment is classed as functional.

Each structure is given as a SMILES string.

Turning to `O=C1NC(=O)C(Cc2ccc(OCc3nc(-c4ccccc4)cs3)cc2)S1` (configuration not stated), the results for the Reduction in the experiment filed under Mus musculus [1] and in the experiment listed under Mus musculus [2] were 48% and 44%, respectively.
Regarding `Cc1oc(C2CCCCC2)nc1C(O)COc1ccc(CC2SC(=O)NC2=O)cc1` (configuration not stated), the Reduction in the experiment listed under Mus musculus [1] is listed as 49%; in the experiment listed under Mus musculus [2], 67%.
In the same order, the values of `CC(C)c1nc(CCOc2ccc(CC3SC(=O)NC3=O)cc2)cs1` (configuration not stated) are 56% and 45%.
In the same order, the values of `Cc1nc(CCOc2ccc(CC3SC(=O)NC3=O)cc2)oc1-c1ccccc1` (configuration not stated) are 18% and 7%.
For `Cc1oc(C2(C)CCCCC2)nc1CCOc1ccc(/C=C2\SC(=O)NC2=O)cc1`, the Reduction in the experiment listed under Mus musculus [1] was 24%; in the experiment listed under Mus musculus [2] it was 9%.
For the compound `CSc1cccc(-c2nc(CCOc3ccc(/C=C4\SC(=O)NC4=O)cc3)c(C)o2)c1`, the Reduction in the experiment listed under Mus musculus [1] came out at 52%; in the experiment listed under Mus musculus [2], 58%.
With `Cc1oc(-c2ccco2)nc1COc1ccc(CC2SC(=O)NC2=O)cc1` (configuration not stated), the Reduction is 43% in the experiment listed under Mus musculus [1] and 35% in the experiment listed under Mus musculus [2].
`Cc1oc(-c2ccccc2)nc1C(=O)COc1ccc(CC2SC(=O)NC2=O)cc1` (configuration not stated): the values for the Reduction in the experiment listed under Mus musculus [1] and in the experiment filed under Mus musculus [2] were 52% and 67%, respectively.
As for `CCCc1nc(COc2ccc(CC3SC(=O)NC3=O)cc2)co1` (configuration not stated), the Reduction in the experiment filed under Mus musculus [1] amounted to 12%; in the experiment listed under Mus musculus [2] it was 29%.
Taken in the same sequence, the figures for `Cc1oc(-c2ccccc2)nc1C(=O)COc1ccc(/C=C2\SC(=O)NC2=O)cc1` were 45% and 51%.
For the compound `Cc1nc(C(=O)COc2ccc(CC3SC(=O)NC3=O)cc2)c(C)o1` (configuration not stated), the values for the Reduction in the experiment filed under Mus musculus [1] and in the experiment listed under Mus musculus [2] were 39% and 27%, respectively.
As for `Cc1oc(-c2ccc(Cl)cc2)nc1CCOc1ccc(/C=C2\SC(=O)NC2=O)cc1`, the Reduction came to 54% in the experiment filed under Mus musculus [1] and 58% in the experiment listed under Mus musculus [2].
`Cc1oc(-c2ccccc2)nc1CCCOc1ccc(CC2SC(=O)NC2=O)cc1` (configuration not stated): the Reduction in the experiment listed under Mus musculus [1] came out at 21%; in the experiment filed under Mus musculus [2], 29%.
For the compound `CSc1cccc(-c2nc(CCOc3ccc(CC4SC(=O)NC4=O)cc3)c(C)o2)c1` (configuration not stated), the figures for the Reduction in the experiment filed under Mus musculus [1] and in the experiment filed under Mus musculus [2] were 52% and 67%, respectively.
Taken in the same sequence, the figures for `CCc1nc(CCOc2ccc(CC3SC(=O)NC3=O)cc2)cs1` (configuration not stated) were 55% and 37%.
In the same order, the values of `Cc1oc(CCOc2ccc(CC3SC(=O)NC3=O)cc2)nc1CC(C)C` (configuration not stated) are 53% and 43%.
Consider `CCc1oc(CCOc2ccc(CC3SC(=O)NC3=O)cc2)nc1-c1ccccc1` (configuration not stated), for which the Reduction in the experiment filed under Mus musculus [1] is listed as 46%; in the experiment filed under Mus musculus [2] it was 51%.
`Cc1oc(CCOc2ccc(CC3SC(=O)NC3=O)cc2)nc1C1CCCCC1` (configuration not stated): the figures for the Reduction in the experiment filed under Mus musculus [1] and in the experiment listed under Mus musculus [2] were 54% and 51%, respectively.
`Cc1nc(COc2ccc(CC3SC(=O)NC3=O)cc2)cs1` (configuration not stated): the Reduction in the experiment filed under Mus musculus [1] was determined as 19%; in the experiment filed under Mus musculus [2] it was 30%.
For the compound `Cc1oc(CCOc2ccc(CC3SC(=O)NC3=O)cc2)nc1-c1ccccc1` (configuration not stated), the Reduction in the experiment filed under Mus musculus [1] is listed as 54%; in the experiment listed under Mus musculus [2], 60%.
In the same order, the values of `Cc1scnc1CCOc1ccc(CC2SC(=O)NC2=O)cc1` (configuration not stated) are 52% and 45%.
Take `Cc1nc(C(=O)COc2ccc(/C=C3\SC(=O)NC3=O)cc2)c(C)o1`: the Reduction in the experiment listed under Mus musculus [1] is recorded as 33%; in the experiment listed under Mus musculus [2] it was 29%.
Turning to `CCc1oc(-c2ccccc2)nc1CCOc1ccc(/C=C2\SC(=O)NC2=O)cc1`, the Reduction turned out to be 54% in the experiment listed under Mus musculus [1] and 59% in the experiment filed under Mus musculus [2].
Turning to `O=C1NC(=O)C(Cc2ccc(OCc3csc(-c4cccnc4)n3)cc2)S1` (configuration not stated), the Reduction stood at 25% in the experiment filed under Mus musculus [1] and 30% in the experiment filed under Mus musculus [2].
As to `Cc1nc(CCOc2ccc(/C=C3\SC(=O)NC3=O)cc2)cs1`, the results for the Reduction in the experiment listed under Mus musculus [1] and in the experiment listed under Mus musculus [2] were 34% and 5%, respectively.
Turning to `O=C1NC(=O)C(Cc2ccc(OCc3nc4ccccc4o3)cc2)S1` (configuration not stated), the Reduction is on record as 35% in the experiment listed under Mus musculus [1] and 24% in the experiment filed under Mus musculus [2].

Source of the values: ChEMBL document CHEMBL1125480, “Studies on antidiabetic agents. 11. Novel thiazolidinedione derivatives as potent hypoglycemic and hypolipidemic agents” (1992).
